In patent publication US10017791B2, “Coryneform bacterium transformant and process for producing 4-hydroxybenzoic acid or salt thereof using the same” (GREEN PHENOL DEVELOPMENT CO., LTD., priority 2014, dated 2018):
pIC50: −log10 of the molar value.

Molecular target: T1, chorismate-pyruvate lyase of Citrobacter youngae (Citrobacter youngae, UniProt A0ABM8MN84, A17E/A70K/G54A/S20A/T66M)
T1 sequence (A0ABM8MN84 1-165 A17E/S20A/G54A/T66M/A70K): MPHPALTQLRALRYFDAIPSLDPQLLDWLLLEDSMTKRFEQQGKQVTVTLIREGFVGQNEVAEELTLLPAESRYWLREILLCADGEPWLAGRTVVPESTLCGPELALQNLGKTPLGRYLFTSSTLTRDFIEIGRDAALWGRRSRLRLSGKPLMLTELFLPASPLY
Test: Product inhibition of chorismate-pyruvate lyase activity by 4-HBA (IC50)
Format: biochemical
Details: cell lysate supernatant of strain HBA13

O=C(O)c1ccc(O)cc1 [Strain 4-HBA, 4-hydroxybenzoic acid]
pIC50: 4.17
